Reference: ChEMBL document CHEMBL5291721, “A preclinical secondary pharmacology resource illuminates target-adverse drug reaction associations of marketed drugs” (Nat Commun, 2023)

Legend:
[1] = biological target: 5-hydroxytryptamine receptor 2A (Homo sapiens, UniProt P28223); format: functional, cell-based
Androgen receptor [2] = biological target: T1, Androgen receptor (Rattus norvegicus, UniProt P15207); format: functional
T1 sequence (P15207 whole entry): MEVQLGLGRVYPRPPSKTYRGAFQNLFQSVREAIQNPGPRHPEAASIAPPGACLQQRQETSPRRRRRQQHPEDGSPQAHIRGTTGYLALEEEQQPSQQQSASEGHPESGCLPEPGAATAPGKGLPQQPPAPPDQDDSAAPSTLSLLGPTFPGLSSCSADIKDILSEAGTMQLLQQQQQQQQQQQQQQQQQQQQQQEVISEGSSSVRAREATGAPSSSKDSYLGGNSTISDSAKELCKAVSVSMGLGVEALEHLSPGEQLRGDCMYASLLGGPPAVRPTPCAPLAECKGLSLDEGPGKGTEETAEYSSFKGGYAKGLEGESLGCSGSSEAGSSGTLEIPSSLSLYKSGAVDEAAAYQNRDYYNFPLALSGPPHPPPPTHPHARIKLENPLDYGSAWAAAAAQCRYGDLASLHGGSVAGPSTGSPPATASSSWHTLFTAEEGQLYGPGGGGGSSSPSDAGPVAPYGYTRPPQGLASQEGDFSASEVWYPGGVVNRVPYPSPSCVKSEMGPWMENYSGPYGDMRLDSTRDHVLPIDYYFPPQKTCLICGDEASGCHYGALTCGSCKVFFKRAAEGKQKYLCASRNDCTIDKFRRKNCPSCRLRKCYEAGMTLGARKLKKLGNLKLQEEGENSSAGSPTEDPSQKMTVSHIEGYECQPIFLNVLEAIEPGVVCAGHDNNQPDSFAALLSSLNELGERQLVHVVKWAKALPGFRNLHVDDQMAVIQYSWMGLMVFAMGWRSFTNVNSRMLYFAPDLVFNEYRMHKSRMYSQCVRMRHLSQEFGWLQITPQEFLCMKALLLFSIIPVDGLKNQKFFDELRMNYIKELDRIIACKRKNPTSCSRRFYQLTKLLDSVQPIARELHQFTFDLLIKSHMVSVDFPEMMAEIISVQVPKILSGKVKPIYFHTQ

Androgen receptor [3] = biological target: T1, Androgen receptor; format: functional; remark: listed apart in the source
Mu-type opioid receptor = Mu-type opioid receptor (Homo sapiens, UniProt P35372)
D(1A) dopamine receptor = D(1A) dopamine receptor (Homo sapiens, UniProt P21728)
[4] = biological target: T2, 5-hydroxytryptamine receptor 1A (Homo sapiens, UniProt P08908)
T2 sequence (P08908 whole entry): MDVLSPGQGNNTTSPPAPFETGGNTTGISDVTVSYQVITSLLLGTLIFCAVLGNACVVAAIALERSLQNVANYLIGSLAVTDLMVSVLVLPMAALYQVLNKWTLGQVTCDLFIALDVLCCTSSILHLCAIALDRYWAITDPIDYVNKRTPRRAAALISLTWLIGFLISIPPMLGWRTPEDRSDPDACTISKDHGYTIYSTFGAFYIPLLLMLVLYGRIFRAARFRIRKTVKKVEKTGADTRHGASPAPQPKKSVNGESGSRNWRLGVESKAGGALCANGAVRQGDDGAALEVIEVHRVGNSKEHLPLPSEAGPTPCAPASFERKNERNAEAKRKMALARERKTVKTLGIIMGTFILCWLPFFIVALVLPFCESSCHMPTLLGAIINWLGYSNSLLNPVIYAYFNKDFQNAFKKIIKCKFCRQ

Androgen receptor [5] = biological target: T1, Androgen receptor
Progesterone receptor = biological target: T3, Progesterone receptor (Homo sapiens, UniProt P06401)
T3 sequence (P06401 whole entry): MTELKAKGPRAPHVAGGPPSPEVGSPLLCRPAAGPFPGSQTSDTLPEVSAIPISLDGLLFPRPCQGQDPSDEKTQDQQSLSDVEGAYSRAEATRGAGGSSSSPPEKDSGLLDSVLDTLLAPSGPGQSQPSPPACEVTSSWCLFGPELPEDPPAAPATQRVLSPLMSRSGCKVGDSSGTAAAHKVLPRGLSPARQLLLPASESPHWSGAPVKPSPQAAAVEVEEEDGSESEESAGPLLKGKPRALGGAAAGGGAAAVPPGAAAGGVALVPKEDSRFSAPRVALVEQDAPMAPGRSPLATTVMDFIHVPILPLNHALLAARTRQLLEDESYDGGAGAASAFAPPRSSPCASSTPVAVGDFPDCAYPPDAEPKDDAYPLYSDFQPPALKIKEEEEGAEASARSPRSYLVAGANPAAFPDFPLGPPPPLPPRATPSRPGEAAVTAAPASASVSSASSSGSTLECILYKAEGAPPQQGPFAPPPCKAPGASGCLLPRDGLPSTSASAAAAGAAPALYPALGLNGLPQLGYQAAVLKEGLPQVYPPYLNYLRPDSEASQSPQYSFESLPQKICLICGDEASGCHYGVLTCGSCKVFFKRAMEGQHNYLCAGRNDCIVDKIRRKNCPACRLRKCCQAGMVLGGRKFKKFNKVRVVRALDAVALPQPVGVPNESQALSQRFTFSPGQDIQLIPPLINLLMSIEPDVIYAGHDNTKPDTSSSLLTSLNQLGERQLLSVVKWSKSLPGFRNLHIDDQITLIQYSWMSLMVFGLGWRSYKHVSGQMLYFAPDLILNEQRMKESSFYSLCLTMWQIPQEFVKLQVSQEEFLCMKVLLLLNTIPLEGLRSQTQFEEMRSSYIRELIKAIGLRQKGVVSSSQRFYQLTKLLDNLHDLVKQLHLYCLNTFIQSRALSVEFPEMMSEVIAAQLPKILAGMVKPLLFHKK

[6] = biological target: Beta-1 adrenergic receptor (Homo sapiens, UniProt P08588); format: functional, cell-based
[7] = biological target: Gamma-aminobutyric acid receptor subunit alpha-1/alpha-2/beta-2/gamma-2 (Homo sapiens, UniProt P14867+P18507+P47869+P47870); format: functional, cell-based
[8] = biological target: Beta-3 adrenergic receptor (Homo sapiens, UniProt P13945)
Further: assay procedure not described here.

D(1A) dopamine receptor, sequence (P21728 whole entry): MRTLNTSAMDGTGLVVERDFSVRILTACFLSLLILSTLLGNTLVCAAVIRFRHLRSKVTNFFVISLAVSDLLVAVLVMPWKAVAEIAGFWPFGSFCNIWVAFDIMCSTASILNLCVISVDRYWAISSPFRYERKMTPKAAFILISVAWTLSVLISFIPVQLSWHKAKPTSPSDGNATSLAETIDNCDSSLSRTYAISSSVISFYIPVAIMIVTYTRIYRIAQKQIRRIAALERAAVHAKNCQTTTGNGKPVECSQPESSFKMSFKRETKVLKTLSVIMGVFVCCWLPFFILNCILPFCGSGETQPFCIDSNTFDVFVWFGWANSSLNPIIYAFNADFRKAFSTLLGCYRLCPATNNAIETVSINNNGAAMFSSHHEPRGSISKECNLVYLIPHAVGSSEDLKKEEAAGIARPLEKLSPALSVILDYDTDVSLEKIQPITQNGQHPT
5-hydroxytryptamine receptor 2A, sequence (P28223 whole entry): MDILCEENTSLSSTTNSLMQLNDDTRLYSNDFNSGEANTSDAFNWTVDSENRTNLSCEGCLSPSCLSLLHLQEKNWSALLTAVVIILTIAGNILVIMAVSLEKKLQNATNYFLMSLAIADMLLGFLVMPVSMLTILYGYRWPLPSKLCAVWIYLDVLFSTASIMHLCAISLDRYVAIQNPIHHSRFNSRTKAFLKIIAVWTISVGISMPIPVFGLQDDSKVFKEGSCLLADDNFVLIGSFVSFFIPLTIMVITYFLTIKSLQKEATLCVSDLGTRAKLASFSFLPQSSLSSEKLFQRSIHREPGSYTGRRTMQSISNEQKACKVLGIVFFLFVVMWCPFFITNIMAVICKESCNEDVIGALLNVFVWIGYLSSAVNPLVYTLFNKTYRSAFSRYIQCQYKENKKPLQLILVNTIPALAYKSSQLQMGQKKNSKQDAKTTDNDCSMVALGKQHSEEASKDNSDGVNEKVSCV
Beta-3 adrenergic receptor, sequence (P13945 whole entry): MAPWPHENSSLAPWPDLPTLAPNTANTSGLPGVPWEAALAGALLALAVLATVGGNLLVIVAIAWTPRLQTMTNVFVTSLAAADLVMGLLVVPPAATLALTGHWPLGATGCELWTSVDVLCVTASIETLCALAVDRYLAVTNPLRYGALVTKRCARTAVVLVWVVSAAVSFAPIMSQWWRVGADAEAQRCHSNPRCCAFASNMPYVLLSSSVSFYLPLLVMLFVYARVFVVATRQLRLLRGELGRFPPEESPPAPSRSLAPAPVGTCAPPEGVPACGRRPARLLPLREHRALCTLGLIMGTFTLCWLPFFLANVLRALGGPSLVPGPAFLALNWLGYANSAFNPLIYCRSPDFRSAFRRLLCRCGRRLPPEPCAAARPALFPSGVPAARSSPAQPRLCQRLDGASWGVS
Beta-1 adrenergic receptor, sequence (P08588 whole entry): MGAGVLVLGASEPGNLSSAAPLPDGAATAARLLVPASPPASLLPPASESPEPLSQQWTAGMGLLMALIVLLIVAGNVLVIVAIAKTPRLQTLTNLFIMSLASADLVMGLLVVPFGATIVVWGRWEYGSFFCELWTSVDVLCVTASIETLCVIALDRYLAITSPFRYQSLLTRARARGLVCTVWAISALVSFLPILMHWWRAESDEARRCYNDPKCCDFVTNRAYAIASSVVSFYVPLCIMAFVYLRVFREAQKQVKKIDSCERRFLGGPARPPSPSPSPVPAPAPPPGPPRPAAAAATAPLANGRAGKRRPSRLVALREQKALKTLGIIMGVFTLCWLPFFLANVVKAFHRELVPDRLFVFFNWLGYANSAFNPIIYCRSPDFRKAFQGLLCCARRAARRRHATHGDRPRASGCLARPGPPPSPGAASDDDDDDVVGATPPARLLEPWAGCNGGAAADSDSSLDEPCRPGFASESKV
Gamma-aminobutyric acid receptor subunit alpha-1/alpha-2/beta-2/gamma-2, sequence (P14867 whole entry): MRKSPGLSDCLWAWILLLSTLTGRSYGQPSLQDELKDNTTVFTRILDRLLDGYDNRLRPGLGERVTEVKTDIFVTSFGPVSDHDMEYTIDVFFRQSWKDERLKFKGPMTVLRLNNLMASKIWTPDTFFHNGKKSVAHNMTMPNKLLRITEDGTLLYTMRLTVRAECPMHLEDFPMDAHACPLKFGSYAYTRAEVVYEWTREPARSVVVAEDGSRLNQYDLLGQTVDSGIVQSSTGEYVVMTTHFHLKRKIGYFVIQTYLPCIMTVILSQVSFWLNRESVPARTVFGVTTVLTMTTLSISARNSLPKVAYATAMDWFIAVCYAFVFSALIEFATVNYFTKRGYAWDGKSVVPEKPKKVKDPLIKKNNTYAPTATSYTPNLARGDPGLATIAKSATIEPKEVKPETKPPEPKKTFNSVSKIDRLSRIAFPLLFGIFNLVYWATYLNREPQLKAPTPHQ
Gamma-aminobutyric acid receptor subunit alpha-1/alpha-2/beta-2/gamma-2, sequence (P47870 whole entry): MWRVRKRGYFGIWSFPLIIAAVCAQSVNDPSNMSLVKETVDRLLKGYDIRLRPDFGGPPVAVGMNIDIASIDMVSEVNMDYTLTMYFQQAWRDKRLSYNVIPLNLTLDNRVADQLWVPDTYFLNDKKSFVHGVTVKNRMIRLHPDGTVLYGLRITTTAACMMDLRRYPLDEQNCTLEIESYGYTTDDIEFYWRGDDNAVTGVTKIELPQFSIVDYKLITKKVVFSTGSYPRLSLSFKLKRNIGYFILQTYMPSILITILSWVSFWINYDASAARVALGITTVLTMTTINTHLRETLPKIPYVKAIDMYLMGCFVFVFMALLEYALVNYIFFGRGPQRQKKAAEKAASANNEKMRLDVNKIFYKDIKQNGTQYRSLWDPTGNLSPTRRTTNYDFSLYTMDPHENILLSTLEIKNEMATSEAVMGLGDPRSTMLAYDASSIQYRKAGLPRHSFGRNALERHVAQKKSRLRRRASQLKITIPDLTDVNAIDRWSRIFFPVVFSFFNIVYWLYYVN
Gamma-aminobutyric acid receptor subunit alpha-1/alpha-2/beta-2/gamma-2, sequence (P18507 whole entry): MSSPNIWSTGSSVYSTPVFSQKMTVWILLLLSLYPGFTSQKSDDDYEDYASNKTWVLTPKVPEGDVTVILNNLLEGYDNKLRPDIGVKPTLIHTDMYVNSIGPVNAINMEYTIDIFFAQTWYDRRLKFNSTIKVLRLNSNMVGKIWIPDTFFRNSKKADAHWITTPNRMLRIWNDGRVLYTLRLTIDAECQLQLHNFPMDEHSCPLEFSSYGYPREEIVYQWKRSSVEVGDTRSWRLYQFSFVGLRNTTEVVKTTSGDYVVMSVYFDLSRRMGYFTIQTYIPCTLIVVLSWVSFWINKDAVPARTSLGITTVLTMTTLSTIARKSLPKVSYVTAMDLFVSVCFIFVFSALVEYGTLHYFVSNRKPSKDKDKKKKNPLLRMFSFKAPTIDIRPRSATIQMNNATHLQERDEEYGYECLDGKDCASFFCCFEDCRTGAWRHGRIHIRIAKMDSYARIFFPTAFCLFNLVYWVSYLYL
Gamma-aminobutyric acid receptor subunit alpha-1/alpha-2/beta-2/gamma-2, sequence (P47869 whole entry): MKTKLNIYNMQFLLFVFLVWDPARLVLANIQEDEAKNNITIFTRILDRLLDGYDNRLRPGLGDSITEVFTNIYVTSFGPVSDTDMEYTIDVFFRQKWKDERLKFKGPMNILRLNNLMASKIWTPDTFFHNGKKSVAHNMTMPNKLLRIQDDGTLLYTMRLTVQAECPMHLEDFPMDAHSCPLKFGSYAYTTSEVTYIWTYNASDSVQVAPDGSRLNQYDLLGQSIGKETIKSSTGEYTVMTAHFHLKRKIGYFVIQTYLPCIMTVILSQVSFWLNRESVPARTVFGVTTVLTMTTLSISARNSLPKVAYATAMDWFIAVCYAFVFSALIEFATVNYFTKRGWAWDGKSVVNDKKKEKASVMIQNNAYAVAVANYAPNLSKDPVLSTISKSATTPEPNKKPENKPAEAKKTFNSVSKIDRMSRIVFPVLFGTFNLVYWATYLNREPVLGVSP
Mu-type opioid receptor, sequence (P35372 whole entry): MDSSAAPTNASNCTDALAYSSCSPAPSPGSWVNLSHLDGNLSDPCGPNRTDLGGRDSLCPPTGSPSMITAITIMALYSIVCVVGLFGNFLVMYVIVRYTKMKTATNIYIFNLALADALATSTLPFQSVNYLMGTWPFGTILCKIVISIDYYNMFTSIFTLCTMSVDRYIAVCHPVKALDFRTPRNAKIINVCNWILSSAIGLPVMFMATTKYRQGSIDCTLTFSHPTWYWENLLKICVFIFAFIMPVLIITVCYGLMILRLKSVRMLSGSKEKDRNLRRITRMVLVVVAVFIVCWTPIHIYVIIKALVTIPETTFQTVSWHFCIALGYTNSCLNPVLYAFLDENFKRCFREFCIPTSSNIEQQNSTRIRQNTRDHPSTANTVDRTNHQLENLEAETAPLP

CC(=O)SC[C@@H](C)C(=O)N1CCC[C@H]1C(=O)N[C@@H](Cc1ccccc1)C(=O)O
AC50 [1]: > 30 µM

C#CCOc1ccc(N)cc1C(=O)NCCCC [PARSALMIDE]
AC50 (Androgen receptor [2]): > 30 µM
AC50 (Androgen receptor [3]): > 30 µM
AC50 [1]: > 30 µM

OCc1cc(C(O)CNCCCCCCOCCCCc2ccccc2)ccc1O (stereo unspecified) [SALMETEROL]
AC50 (Mu-type opioid receptor): > 30 µM
AC50 (D(1A) dopamine receptor): > 10 µM

CC1=C(C)C(=O)C(C(CCCCCC(=O)O)c2ccccc2)=C(C)C1=O (stereo unspecified) [SERATRODAST]
AC50 [1]: > 30 µM

C=C1/C(=C\C=C2/CCC[C@]3(C)[C@@H]([C@H](C)/C=C/[C@@H](O)C4CC4)CC[C@@H]23)C[C@@H](O)C[C@@H]1O [CALCIPOTRIENE]
AC50 (Androgen receptor [2]): > 30 µM
AC50 (Androgen receptor [3]): 28 µM
AC50 [1]: > 30 µM
AC50 [4]: > 30 µM

Nc1cc(-c2ccncc2)c[nH]c1=O [INAMRINONE]
AC50 (Androgen receptor [5]): > 30 µM
AC50 (Progesterone receptor): > 20 µM
AC50 (Mu-type opioid receptor): > 30 µM

COc1cc2c(cc1OC)C(CCc1ccc(Cl)cc1)N(C)CC2 (stereo unspecified) [METHOPHOLINE]
AC50 (Androgen receptor [5]): > 30 µM
AC50 [1]: > 10 µM
AC50 (Mu-type opioid receptor): > 30 µM

CN(C(=O)c1c(O)c2ccccc2n(C)c1=O)c1ccccc1 [ROQUINIMEX]
AC50 [1]: > 30 µM

Cc1ncc2n1-c1ccc(Cl)cc1C(c1ccccc1F)=NC2 [MIDAZOLAM]
AC50 (Progesterone receptor): > 30 µM
AC50 (Mu-type opioid receptor): > 30 µM
AC50 [4]: > 10 µM

CC(=O)[C@]1(O)Cc2c(O)c3c(c(O)c2[C@@H](O[C@H]2C[C@H](N)[C@H](O)[C@H](C)O2)C1)C(=O)c1ccccc1C3=O [IDARUBICIN]
AC50 (Androgen receptor [2]): 17 µM

CCN(CC)C(=O)Nc1ccc(OCC(O)CNC(C)(C)C)c(C(C)=O)c1 (stereo unspecified) [CELIPROLOL]
AC50 [6]: > 30 µM
AC50 (Androgen receptor [2]): > 30 µM
AC50 (Androgen receptor [3]): > 30 µM
AC50 [1]: > 30 µM

Oc1ccc2c(c1)[C@@]13CCCC[C@@]1(O)[C@@H](C2)N(CC1CCC1)CC3 [BUTORPHANOL]
AC50 (Androgen receptor [2]): > 30 µM
AC50 (Androgen receptor [3]): > 30 µM
AC50 [7]: > 30 µM
AC50 [1]: > 30 µM

O=C(O)CCNC(=O)c1ccccc1 [BETAMIPRON]
AC50 [6]: > 30 µM

O=C(O)c1ccccc1Nc1cc(Cl)ccc1C(=O)O [LOBENZARIT]
AC50 [6]: > 30 µM
AC50 [1]: > 30 µM

C/C(=C\C(=O)OCCCCCCCCC(=O)O)C[C@@H]1OC[C@H](C[C@@H]2O[C@H]2[C@@H](C)[C@H](C)O)[C@@H](O)[C@H]1O [MUPIROCIN]
AC50 (Mu-type opioid receptor): > 30 µM

C=C[C@@]1(C)CC(=O)[C@]2(O)[C@@]3(C)[C@@H](O)CCC(C)(C)[C@@H]3[C@H](O)[C@H](OC(C)=O)[C@@]2(C)O1 [COLFORSIN]
AC50 [1]: > 30 µM

CCC(COC(=O)c1cc(OC)c(OC)c(OC)c1)(c1ccccc1)N(C)C (stereo unspecified) [TRIMEBUTINE]
AC50 [6]: > 30 µM
AC50 [1]: > 30 µM

CCCCCCCCCCCCCCCCCCCCCC(=O)Nc1ccn([C@@H]2O[C@H](CO)[C@@H](O)[C@@H]2O)c(=O)n1 [ENOCITABINE]
AC50 (Androgen receptor [2]): > 30 µM
AC50 (Androgen receptor [3]): > 30 µM
AC50 [1]: > 30 µM

CC(=O)OCC(=O)[C@@]1(O)[C@H](C)C[C@H]2[C@@H]3CCC4=CC(=O)C=C[C@]4(C)[C@@]3(F)[C@@H](O)C[C@@]21C [DEXAMETHASONE ACETATE]
AC50 [8]: > 30 µM
AC50 (Progesterone receptor): > 30 µM
AC50 (Mu-type opioid receptor): > 30 µM
AC50 [4]: > 10 µM

COc1ccc(-c2noc(CC(=O)O)c2-c2ccc(OC)cc2)cc1 [MOFEZOLAC]
AC50 [6]: > 30 µM
AC50 (Androgen receptor [2]): > 30 µM
AC50 (Androgen receptor [3]): > 30 µM
AC50 [1]: > 30 µM

NC1CCN(c2nc3c(cc2F)c(=O)c(C(=O)O)cn3-c2ccc(F)cc2F)C1 (stereo unspecified) [TOSUFLOXACIN]
AC50 (Androgen receptor [2]): > 30 µM
AC50 (Androgen receptor [3]): > 30 µM

Cn1c(=O)cc(N2CCC[C@@H](N)C2)n(Cc2ccccc2C#N)c1=O [ALOGLIPTIN]
AC50 [8]: > 30 µM
AC50 (Androgen receptor [5]): > 30 µM
AC50 (Progesterone receptor): > 30 µM
AC50 (Mu-type opioid receptor): 8.8 µM
AC50 [4]: > 10 µM
AC50 (D(1A) dopamine receptor): > 10 µM

COc1cc2ncnc(Nc3ccc(F)c(Cl)c3)c2cc1NC(=O)/C=C/CN1CCCCC1 [DACOMITINIB ANHYDROUS]
AC50 [1]: > 30 µM

CCCCCC(=O)O[C@]1(C(C)=O)CC[C@H]2[C@@H]3CCC4=CC(=O)CC[C@]4(C)[C@H]3CC[C@@]21C [HYDROXYPROGESTERONE CAPROATE]
AC50 [1]: > 30 µM

Cn1cnc2c(F)c(Nc3ccc(Br)cc3Cl)c(C(=O)NOCCO)cc21 [SELUMETINIB]
AC50 [8]: > 30 µM
AC50 (Progesterone receptor): > 30 µM
AC50 (Mu-type opioid receptor): > 30 µM
AC50 [4]: > 10 µM
AC50 (D(1A) dopamine receptor): > 10 µM

NC(=O)CN1CCCC1=O
AC50 [7]: > 30 µM

C[N@+]1(CCF)[C@@H]2CC[C@H]1C[C@@H](OC(=O)C(O)(c1ccccc1)c1ccccc1)C2
AC50 [1]: > 30 µM

O=C1CN=C(c2ccccn2)c2cc(Br)ccc2N1 [BROMAZEPAM]
AC50 (Androgen receptor [5]): > 10 µM
AC50 [1]: > 10 µM
AC50 (Mu-type opioid receptor): > 30 µM

CC(=O)[C@@]1(O)CC[C@H]2[C@@H]3C=C(Cl)C4=CC(=O)[C@@H]5C[C@@H]5[C@]4(C)[C@H]3CC[C@@]21C [CYPROTERONE]
AC50 [1]: > 10 µM
AC50 (Mu-type opioid receptor): > 30 µM
AC50 (D(1A) dopamine receptor): > 10 µM

CC(=O)O[C@H](CC(=O)[O-])C[N+](C)(C)C [ACETYLCARNITINE]
AC50 [6]: > 30 µM
AC50 [1]: > 30 µM

CCOC(=O)O[C@]1(C(=O)OCCl)CC[C@H]2[C@@H]3CCC4=CC(=O)C=C[C@]4(C)[C@H]3[C@@H](O)C[C@@]21C [LOTEPREDNOL ETABONATE]
AC50 [1]: > 30 µM

CCN1CCCC1CNC(=O)c1cc(S(=O)(=O)CC)c(N)cc1OC (stereo unspecified) [AMISULPRIDE]
AC50 [7]: > 30 µM

O=C1CN=C(c2ccccc2)c2cc([N+](=O)[O-])ccc2N1 [NITRAZEPAM]
AC50 (Mu-type opioid receptor): > 30 µM

CCN(CC)CCN1C(=O)CN=C(c2ccccc2F)c2cc(Cl)ccc21 [FLURAZEPAM]
AC50 (Mu-type opioid receptor): > 30 µM
AC50 [4]: 5.47 µM

COc1ccc2nc3cc(Cl)ccc3c(Nc3cc(CN4CCCC4)c(O)c(CN4CCCC4)c3)c2n1 [PYRONARIDINE]
AC50 (Androgen receptor [2]): > 30 µM
AC50 (Androgen receptor [3]): > 10 µM
AC50 [1]: > 30 µM
